≈ marks a conversion by molar mass, not a printed value.
Key:
Penicillium expansum [1] = assay: Blue mold on apple, contact assay; assay type: in vivo
Experimental: Contact Assay: […] A 250 mL solution of each concentration is used to dip two inoculated apples, one minute per apple, performed in triplicate per rate. The dipped fruits are then placed back into the […] are then placed in a secondary container and incubated at 1° C. for 5 days. After incubation, fruits are evaluated for diameter (mm) of rot development (browning) up to 7 days at 21° C.

Botrytis cinerea [2] = assay: Gray mold on strawberry, contact assay (Example 23); assay type: in vivo
Experimental: Eight strawberries (per repetition, in triplicate) are placed in an industry standard 1-lb PET clamshell with the stem-end facing down.
Contact Assay: Compound A is dissolved in 85% methanol to achieve a final concentration of 250, 50, 10, or 2 mg/L. A 250 mL solution of each concentration is used to dip eight inoculated strawberry fruit for one-minute, performed in triplicate per rate. The dipped fruits are then placed back into the clamshells, which are then placed in a secondary container and incubated at 1° C. for 5 days. After incubation, fruits are evaluated for disease severity (scale 0 to 4, with ≤1 indicating marketable fruit and 4 indicating ≥50% of fruit surface covered by pathogen) up to 4 days at 21° C.

B. cinerea = assay: In vitro contact assay, amended agar (Example 24); assay type: cell-based; settings: Botrytis cinerea, 72 h; amended agar; 100% control; 3 days at 23 C; read-out: Contact MIC (mg/L) B. cinerea
Experimental: (§1) Contact assay: 6-well (16.5 mL volume per well) microtiter plates are used for an in vitro inhibition assay. […] A 7.5-mL volume of the amended media is added to each well of the microtiter plate. […] The plates are sealed with a clear film and incubated for 3 days at 23° C. After incubation, plates are evaluate for percent growth relative to acetone only control.

P. expansum = assay: In vitro contact assay, amended agar (Example 24); assay type: cell-based; settings: Penicillium expansum, 72 h; amended agar; 100% control; 3 days at 23 C; read-out: Contact MIC (mg/L) P. expansum
Experimental: as §1

Botrytis cinerea [3] = assay: In vitro volatile assay (Example 24); assay type: cell-based; settings: 72 h, headspace, 100% control, 3 days at 23 C, read-out: Volatile MIC (mg/L) B. cinerea
Experimental: (§2) Volatile assay: 12-well (6.5 mL volume per well) microtiter plates are used. A 3-mL volume of half strength PDA is added to each well. […] A Whatman #1 filter disk (Cat. No. 1001-0155) is placed, in duplicate, on the underside of a polyethylene PCR plate sealing film. […] The acetone is permitted to evaporate for 5 minutes. The headspace around the inoculum is then sealed inside the well by the film with the adhering disk containing the fungicide. Plates are inverted, placed over the treated disks, and sealed to prevent any of the chemical from flaking from the disk and falling onto the inoculated agar. […] Contact assay: 6-well (16.5 mL volume per well) microtiter plates are used for an in vitro inhibition assay. […] A 7.5-mL volume of the amended media is added to each well of the microtiter plate. […] The plates are sealed with a clear film and incubated for 3 days at 23° C. After incubation, plates are evaluate for percent growth relative to acetone only control.

Penicillium expansum [4] = assay: In vitro volatile assay (Example 24); assay type: cell-based; settings: 72 h, headspace, 100% control, 3 days at 23 C, read-out: Volatile MIC (mg/L) P. expansum
Experimental: as §2

Epidermophyton floccus = assay: In vitro contact assay (Example 26); assay type: cell-based; settings: Epidermophyton, 120 h, 5 days at 28 C, 100% control, read-out: MIC (mg/L) Epidermophyton floccus
Experimental: (§3) Half-strength Potato Dextrose Agar (PDA) is amended with a mixture of one of the test compounds in acetone or methanol to a final concentration of 50, 10, 2, 0.4 or 0.08 mg/L. A 3-mL volume of the amended media is added to each well of the microtiter plate. […] The plates are sealed with a clear film and incubated inverted for 5 days at 28° C.

[5] = system: Trichophyton mentagrophytes; assay: In vitro contact assay (Example 26); assay type: cell-based; settings: Trichophyton mentagrophytes, 120 h, 5 days at 28 C, 100% control, read-out: MIC (mg/L) Trichophyton mentagrophytes
Experimental: as §3

Trichophyton rubrum = assay: In vitro contact assay (Example 26); assay type: cell-based; settings: Trichophyton rubrum, 120 h, 5 days at 28 C, 100% control, read-out: MIC (mg/L) Trichophyton rubrum
Experimental: as §3

Aspergillus brasiliensis = assay: Headspace treatment of inoculated grains (Example 28); assay type: in vivo; settings: for Fungal growth on PDA (mm): 10 mg/L headspace
Experimental: An in vivo assay is used to evaluate the ability of Compound A (1-hydroxy-5-fluoro-1, 3-dihydro-2, 1-benzoxaborole) to control fungal growth of seeds.
Grains consisting of corn, wheat, rice, rye, millet and barley are surface sterilized with 0.825% NaOCl for 1 minute and rinsed thrice with sterile distilled water. The grains are inoculated by soaking them in a 1×10^6 spores/mL suspension of Aspergillus brasiliensis for 1 minute. The excess inoculum is blotted out with a sterile paper towel before plating five seeds in a Petri plate containing 25 mL of PDA. For determination of efficacy, Compound A is diluted in acetone and added to 42.5 mm Whatman #1 filter disks (Cat. No. 1001-042) attached to the inner side of the lid in a dose dependent manner to achieve a final headspace concentration of 0.4, 2, or 10 mg/L. The acetone is permitted to evaporate for five minutes before closing plate and sealing it with parafilm. The plates are incubated at 23° C. for three days.

Q: With `OB1OCc2cc(F)ccc21` [Compound A, 5-fluoro-1,3-dihydro-1-hydroxy-2,1-benzoxaborole] as the compound, how does the “Browning Rot (diameter; mm)” value (Penicillium expansum [1]; 2 mg/L, Day 0) read?
A: 0.0 mm

Q: What about the “Browning Rot (diameter; mm)” value (Penicillium expansum [1]; 2 mg/L, Day 2) of the same compound?
A: 3.7 mm

Q: What about the “Browning Rot (diameter; mm)” value (Penicillium expansum [1]; 2 mg/L, Day 4) of the same compound?
A: 15.5 mm

Q: What about the “Browning Rot (diameter; mm)” value (Penicillium expansum [1]; 2 mg/L, Day 7) of the same compound?
A: 23.3 mm

Q: What about the “Browning Rot (diameter; mm)” value (Penicillium expansum [1]; 10 mg/L, Day 0) of the same compound?
A: 0.0 mm

Q: What about the “Browning Rot (diameter; mm)” value (Penicillium expansum [1]; 10 mg/L, Day 2) of the same compound?
A: 2.2 mm

Q: What about the “Browning Rot (diameter; mm)” value (Penicillium expansum [1]; 10 mg/L, Day 4) of the same compound?
A: 8.0 mm

Q: What about the “Browning Rot (diameter; mm)” value (Penicillium expansum [1]; 10 mg/L, Day 7) of the same compound?
A: 20.2 mm

Q: What about the “Browning Rot (diameter; mm)” value (Penicillium expansum [1]; 50 mg/L, Day 0) of the same compound?
A: 0.0 mm

Q: What about the “Browning Rot (diameter; mm)” value (Penicillium expansum [1]; 50 mg/L, Day 2) of the same compound?
A: 0.7 mm

Q: What about the “Browning Rot (diameter; mm)” value (Penicillium expansum [1]; 50 mg/L, Day 4) of the same compound?
A: 5.7 mm

Q: What about the “Browning Rot (diameter; mm)” value (Penicillium expansum [1]; 50 mg/L, Day 7) of the same compound?
A: 15.0 mm

Q: And the “Browning Rot (diameter; mm)” value (Penicillium expansum [1]; 250 mg/L, Day 0)?
A: 0.0 mm

Q: What about the “Browning Rot (diameter; mm)” value (Penicillium expansum [1]; 250 mg/L, Day 2) of the same compound?
A: 0.0 mm

Q: And the “Browning Rot (diameter; mm)” value (Penicillium expansum [1]; 250 mg/L, Day 4)?
A: 4.3 mm

Q: And the “Browning Rot (diameter; mm)” value (Penicillium expansum [1]; 250 mg/L, Day 7)?
A: 11.8 mm

Q: And the “Disease Severity (0 to 4)” value (Botrytis cinerea [2]; 2 mg/L, Day 0)?
A: 0.0

Q: And the “Disease Severity (0 to 4)” value (Botrytis cinerea [2]; 2 mg/L, Day 1)?
A: 0.0

Q: What about the “Disease Severity (0 to 4)” value (Botrytis cinerea [2]; 2 mg/L, Day 2) of the same compound?
A: 0.6

Q: What about the “Disease Severity (0 to 4)” value (Botrytis cinerea [2]; 2 mg/L, Day 3) of the same compound?
A: 1.1

Q: And the “Disease Severity (0 to 4)” value (Botrytis cinerea [2]; 2 mg/L, Day 4)?
A: 1.9

Q: And the “Disease Severity (0 to 4)” value (Botrytis cinerea [2]; 10 mg/L, Day 0)?
A: 0.0

Q: And the “Disease Severity (0 to 4)” value (Botrytis cinerea [2]; 10 mg/L, Day 1)?
A: 0.0

Q: What about the “Disease Severity (0 to 4)” value (Botrytis cinerea [2]; 10 mg/L, Day 2) of the same compound?
A: 0.0

Q: And the “Disease Severity (0 to 4)” value (Botrytis cinerea [2]; 10 mg/L, Day 3)?
A: 0.3

Q: What about the “Disease Severity (0 to 4)” value (Botrytis cinerea [2]; 10 mg/L, Day 4) of the same compound?
A: 1.0

Q: What about the “Disease Severity (0 to 4)” value (Botrytis cinerea [2]; 50 mg/L, Day 0) of the same compound?
A: 0.0

Q: And the “Disease Severity (0 to 4)” value (Botrytis cinerea [2]; 50 mg/L, Day 1)?
A: 0.0

Q: What about the “Disease Severity (0 to 4)” value (Botrytis cinerea [2]; 50 mg/L, Day 2) of the same compound?
A: 0.0

Q: What about the “Disease Severity (0 to 4)” value (Botrytis cinerea [2]; 50 mg/L, Day 3) of the same compound?
A: 0.0

Q: And the “Disease Severity (0 to 4)” value (Botrytis cinerea [2]; 50 mg/L, Day 4)?
A: 0.0

Q: And the “Disease Severity (0 to 4)” value (Botrytis cinerea [2]; 250 mg/L, Day 0)?
A: 0.0

Q: And the “Disease Severity (0 to 4)” value (Botrytis cinerea [2]; 250 mg/L, Day 1)?
A: 0.0

Q: And the “Disease Severity (0 to 4)” value (Botrytis cinerea [2]; 250 mg/L, Day 2)?
A: 0.0

Q: What about the “Disease Severity (0 to 4)” value (Botrytis cinerea [2]; 250 mg/L, Day 3) of the same compound?
A: 0.0

Q: What about the “Disease Severity (0 to 4)” value (Botrytis cinerea [2]; 250 mg/L, Day 4) of the same compound?
A: 0.0

Q: And the MIC (B. cinerea)?
A: < 0.08 mg/L

Q: What about the MIC (P. expansum) of the same compound?
A: 0.4 mg/L (≈ 2.63 µM)

Q: What about the MIC (Botrytis cinerea [3]) of the same compound?
A: 0.3 mg/L (≈ 1.97 µM)

Q: What about the MIC (Penicillium expansum [4]) of the same compound?
A: 2.2 mg/L (≈ 14.5 µM)

Q: And the MIC (Epidermophyton floccus)?
A: 2 mg/L (≈ 13.2 µM)

Q: And the MIC [5]?
A: 2 mg/L (≈ 13.2 µM)

Q: What about the MIC (Trichophyton rubrum) of the same compound?
A: 2 mg/L (≈ 13.2 µM)

Q: And the “Fungal growth on PDA (mm)” value (Aspergillus brasiliensis; Barley)?
A: 0 mm

Q: What about the “Fungal growth on PDA (mm)” value (Aspergillus brasiliensis; Corn Dry) of the same compound?
A: 0 mm

Q: What about the “Fungal growth on PDA (mm)” value (Aspergillus brasiliensis; Millet) of the same compound?
A: 0 mm

Q: What about the “Fungal growth on PDA (mm)” value (Aspergillus brasiliensis; Rice) of the same compound?
A: 0 mm

Q: And the “Fungal growth on PDA (mm)” value (Aspergillus brasiliensis; Rye)?
A: 0 mm

Q: And the “Fungal growth on PDA (mm)” value (Aspergillus brasiliensis; Wheat)?
A: 0 mm

Q: What about the “control of Aspergillus brasiliensis” value (Aspergillus brasiliensis; grains, headspace treatment) of the same compound?
A: 100%

Source: patent publication US12329158B2, “Large-scale methods of uniformly coating packaging surfaces with a volatile antimicrobial to preserve food freshness” (AGROFRESH INC., priority 2013, dated 2025)
